According to ChEMBL document CHEMBL3244291, “Synthesis and antiinflammatory activity of 6-oxo-1-(beta-D-ribofuranosyl)nocotinic acid and related derivatives” (J Med Chem, 1978):
Calls of active or inactive are those of the source. The calls are words filed in the database; no cut-off is given here.

Assays:
[1] = test system: Rattus norvegicus; assay: Antiinflammatory activity in Wistar rat mycobacterial adjuvant-induced arthritis model assessed as inhibition of swelling at 30 mg/kg/day, po measured on day 14 relative to control; format: functional; details: 336 h
[2] = test system: Rattus norvegicus; assay: Antiinflammatory activity in Wistar rat mycobacterial adjuvant-induced arthritis model assessed as inhibition of swelling at 30 mg/kg/day, po measured on day 3 relative to control; format: functional; details: 72 h
[3] = test system: Rattus norvegicus; assay: Antiinflammatory activity in Wistar rat mycobacterial adjuvant-induced arthritis model assessed as suppression of secondary lesions at 30 mg/kg/day, po measured on day 14; format: functional, organism-based
[4] = test system: Rattus norvegicus; assay: Toxicity in Wistar rat mycobacterial adjuvant-induced arthritis model assessed as increase in body weight at 30 mg/kg/day, po after 14 days (reference value: 19 g); format: organism-based; set-up: route oral; details: in vivo, 336 h

SMILES | inhibition in vivo at 30 mg/kg/day [1] [%] | inhibition in vivo at 30 mg/kg/day [2] [%] | Activity [3] | Activity [4] [g]
COc1ccc2cc([C@H](C)C(=O)O)ccc2c1 [NAPROXEN] | 65 |  |  | 
O=C(O)c1ccc(=O)n([C@@H]2O[C@H](CO)[C@@H](O)[C@H]2O)c1 | 37 | 21 | inactive | 22
